Assay results: US20210299150A1, “AP39 IMPACT ON MITOCHONDRIA, METABOLISM, GENE TRANSCRIPTION REGULATION, CARDIOTOXICITY PROTECTION AND CANCER TREATMENT” (priority 2020, published 2021)

Columns and labels:
H9C2 cells [1] = test: Crystal violet staining of H9C2 cells, Dox toxicity; assay type: cell-based, Rat
Description: (§1) AP39 treatment also ameliorated Dox toxicity in a model of Rat cardiomyoblast cell line, H9C2. […] There was a narrow window of protection, as 30 μM and 50 μm doses were not as strong as the 40 μM dose (FIGS. 5A and B) in conferring protection. […] Note that Dox caused an apoptotic phenotype in correlation with ROS levels (FIG. 5F, Dox lane). This in vitro AP39 protection is modest when compared to the in vivo scenario. This difference may be due to rapid clearance of toxic metabolites (for instance, higher lactate production, FIG. 10D) and better oxygen supply (AP39 stimulated OCR, FIG. 7C) in vivo and lack of such sophistication in vitro.
Crystal Violet (CV) assay. For the CV Staining assay, cells were stained with 0.5% crystal violet in 30% ethanol for 10 minutes at room temperature after removal of the medium. The cells were lysed in a 1% SDS (sodium dodecyl sulfate) solution. The absorbance of the solution was measured using a spectrophotometer at a wavelength of 595 nm. FIG. 27.

H9C2 cells [2] = test: Mitochondrial H2S levels (AzMAC) and morphology (mitotracker Red) in H9C2 cells; assay type: cell-based, Rat
From the text: Note that white arrow heads and yellow arrows compare and contrast no-H2S: fusion and H2S-presence: fission scenarios in the same image AP39 treatment lane.
Mitochondrial fission was correlated with H2S levels. To investigate the impact of Dox on mitochondrial biogenesis and mitochondrial H2S levels, H9C2 cells were used in combination with H2S sensitive dye AzMAC and mitotracker Red dye as reported previously^8. […] Further, H2S levels (yellow arrows) highly correlated with a dotted appearance of mitochondria, implying that H2S causes mitochondrial fission, which is a prerequisite for eliminating damaged mitochondria^49.

[3] = system: SK-N-BE(2) neuroblastoma cell line; test: Cell viability (images, MTT) of SK-N-BE(2) neuroblastoma cell line; assay type: cell-based, human
Description: Methods for cell viability: Cells were plated in 96 wells/6 wells cell culture plates. After 24 hrs of plating, the treatments (added in the growth medium) were conducted. The following assays were performed after 24 hrs of the treatments (day 2). (FIGS. 15A, 17-20, 24-27)
MTT assay methods. For the MTT assay, […] of 5 mg/ml MTT-tetrazolium salts in PBS was added to each well containing the growth medium. After 3 hours of incubation, the medium was removed and the formazan crystals were dissolved by adding DMSO. The absorption of the formazan solution was measured using a spectrophotometer at a wavelength of 570 nm. FIGS. 15B, 21-22.
The SK-N-BE(2) neuroblastoma cell line was exposed to control, AP39 (AP) at 40 or 60 μM, Doxorubicin at 2.5 or 20 μM, thiolactate at 10 mM, AP39 and Doxorubicin, AP39 and thiolactate, or Doxorubicin and Thiolactate. […] FIGS. 17, 21, 24-25.

[4] = system: cleaved caspase 3 and PARP, phospho ERK1/2 and phospho p38; test: Western blot of apoptotic markers and stress signaling in H9C2; assay type: cell-based, Rat; details: H9C2, AP39 with Dox vs Dox only
Description: as §1

H9C2 cells [5] = test: Mitochondrial ROS, MitoSox Red, H9C2; assay type: cell-based, Rat; details: H9C2, AP39 and Dox co-treatment
Description: as §1

DIC in mouse models = test: Dox-induced cardiotoxicity (DIC) in mouse models: heart weight, echocardiography, histology; assay type: in vivo
Description: AP39 treatment ameliorated DIC in mouse models in a dose dependent manner. DIC was induced by giving a single dose of Dox i.p. (FIG. 3A) as reported before^48. AP39 was given for six consecutive days starting with Dox treatment. two different doses of AP39 were tested.
AP39 ameliorated cardiac fibrosis in a dose dependent manner. […] It is possible that lower doses of AP39 might have induced favorable metabolic changes which are enough to improve heart function but not sufficient to protect from cardiac cell death after Dox. These findings needs to be confirmed in a larger study.

O=C(CCCCCCCCC[P+](c1ccccc1)(c1ccccc1)c1ccccc1)Oc1ccc(-c2cc(=S)ss2)cc1.[Br-] [AP39]
protection against Dox toxicity, crystal violet staining (H9C2 cells [1]; H9C2, AP39 with Dox): significant protection
AP39 dose conferring strongest protection (30 and 50 not as strong) (H9C2 cells [1]; H9C2, crystal violet, with Dox): 40 µM
Dox-mediated mitochondrial fusion (H9C2 cells [2]; H9C2, AP39 with Dox): reversed after AP39 treatment
mitochondrial H2S levels (AzMAC) (H9C2 cells [2]; H9C2, single agent vs control): H2S production enhancement
mitochondrial morphology (fission / fusion) (H9C2 cells [2]; H9C2, single agent vs control): increased mitochondrial fission
cell killing, agent alone ([3]; AP39 40 or 60 μM, thiolactate 10 mM, 24 hrs): able to kill SK-N-BE(2) cells
potency of low doses of Doxorubicin ([3]; combination with Doxorubicin 2.5 μM): able to increase the potency of low doses of Doxorubicin
reduction of Dox IC value by AP39 ([3]; vs original IC70): ~8 fold
PARP and caspase 3 cleavage [4]: significantly reduced PARP and caspase 3 cleavage
stress signaling (activated ERK1/2 and p38 kinases) [4]: reduced stress signaling
ROS in mitochondria (MitoSox Red) (H9C2 cells [5]): significant amelioration of ROS in mitochondria
heart weight decline seen during Dox treatment (DIC in mouse models; AP39 higher dose 0.642 mg/kg, six consecutive days, single dose of Dox i.p.): effective in countering heart weight decline
left ventricular dysfunction (echocardiography) (DIC in mouse models; both doses of AP39, six consecutive days, single dose of Dox i.p.): effective in ameliorating left ventricular dysfunction
Dox induced fibrosis and cell infiltration (histological sections) (DIC in mouse models; higher AP39 dose): prevented Dox induced fibrosis and cell infiltration
cardiac pathology (fibrosis, cell infiltration) (DIC in mouse models; lower AP39 dose): not cardiac pathology
